Measured values as given in patent US9453026B2, “ACC inhibitors and uses thereof” (Gilead Apollo, Inc., priority 2011, dated 2016).

Assays:
ACC1 = ACC1 (Homo sapiens, UniProt Q13085); assay: In vitro ACC1 inhibition assay (ADP-Glo); type: biochemical
Procedure, shortened: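 Enzyme (human ACC1 or ACC2) and compound, serially diluted 1:3 over 11 points from a 600 uM DMSO stock, were preincubated 15 min before substrate addition.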

[1] = High sucrose diet DIO study, plasma cholesterol and triglycerides; type: in vivo, Sprague Dawley rats; conditions: for Plasma Cholesterol / Plasma Triglycerides: high sucrose-fed DIO rats, mean ± SEM, n=14
Experimental: (§1) The compounds of the present invention are readily adapted to clinical use as anti-obesity agents, insulin sensitizing agents, hyperinsulinemia-reversing agents, and hepatic steatosis-reversing agents. Such activity was determined by assessing the amount of test compound that reduces body weight and percentage body fat, reduces plasma insulin levels, blunts the rise and/or accelerates the reduction in plasma insulin and glucose levels in response to an oral glucose challenge, and reduces hepatic lipid content relative to a control vehicle without test compound in mammals. Sprague Dawley rats were fed either chow, a diet high in sucrose (for example AIN76A rodent diet; Research diets Inc. Cat #10001) or a diet high in fat (for example Research diets Inc. Cat #12451), for from 3-8 weeks prior to and during test compound administration.
(§2) For example, after a 3-8 week period of ad libitum feeding of either a chow, high-fat, or high-sucrose diet, animals that continued to receive the diet were treated for 1-8 weeks with test compound administered either by oral gavage in water or saline or water or saline containing 0.5% methylcelluose using a Q.D., B.I.D, or T.I.D. dosing regimen. At various times during study and at sacrifice (by CO2 asphyxiation), blood was collected either from the tail vein of an unanesthesized rat or from the vena cava of animals at sacrifice into heparin or EDTA containing tubes for centrifugal separation to prepare plasma. Plasma levels of parameters of lipid and carbohydrate metabolism known by those skilled in the art to be altered coincident with anti-obesity, insulin sensitizing, hyperinsulinemia-reversing, and hepatic steatosis-reversing actions, including but not limited to cholesterol and triglycerides, glucose, insulin, leptin, adiponectin, ketone bodies, free fatty acids, and glycerol, are measured using methods known to those skilled in the art.
(§3) The anti-obesity, insulin sensitizing, hyperinsulinemia-reversing, and hepatic steatosis-reversing potential of compounds of the present invention are exemplified through the actions of example compound I-181. […] Results of the reduction in total body weight measurements after treatment of high fat diet-fed DIO rats with compound I-181 are shown in FIG. 11. The degree of body weight reduction paralleled plasma drug levels measured at the end of the study. […] The plasma leptin levels for animals receiving the standard chow diet (lean controls) were also evaluated to determine the extent of parameter normalization produced by compound I-181. […] Results of the reduction in plasma insulin measurements after treatment of high fat diet-fed DIO rats with compound I-181 are shown in FIG. 12. […] Results of the reduction in hepatic triglyceride and cholesterol measurements after treatment of high fat diet-fed DIO rats with compound I-181 are shown in FIG. 13. […] Results of diet-induced obesity studies measuring the effect of compound I-181 on plasma cholesterol and plasma triglycerides are shown in Table 4 below. Data shown are mean values for n=14 animals per group±SEM.

[2] = type: in vivo, Sprague Dawley rats; conditions: 2 weeks
Experimental: as §1, §2, §3

[3] = high-fat diet rats, 3, 10, 30 mg/kg once daily oral gavage

Structure (SMILES): COc1ccccc1[C@H](Cn1c(=O)n(C(C)(C)C(=O)O)c(=O)c2c(C)c(-c3ncco3)sc21)OC1CCOCC1 [I-181, 2-[1-[2-(2-methoxyphenyl)-2-(oxan-4-yloxy)ethyl]-5-methyl-6-(1,3-oxazol-2-yl)-2,4-dioxo-1H,2H,3H,4H-thieno[2,3-d]pyrimidin-3-yl]-2-methylpropanoic acid]
- IC50 (ACC1): < 100 nM
- plasma cholesterol and triglyceride levels ([1]; high sucrose diet rats, 3, 10, 30 mg/kg once daily oral gavage, two weeks): dose-dependent reduction in plasma cholesterol and triglyceride levels
- Plasma Cholesterol ([1]; 3 mg/kg, Day 7): 94 ± 3 mg/dL
- Plasma Triglycerides ([1]; 3 mg/kg, Day 7): 154 ± 15 mg/dL
- Plasma Cholesterol ([1]; 3 mg/kg, Day 14): 96 ± 3 mg/dL
- Plasma Triglycerides ([1]; 3 mg/kg, Day 14): 171 ± 16 mg/dL
- Plasma Cholesterol ([1]; 3 mg/kg, Prebleed): 96 ± 2 mg/dL
- Plasma Triglycerides ([1]; 3 mg/kg, Prebleed): 144 ± 12 mg/dL
- Plasma Cholesterol ([1]; 10 mg/kg, Day 7): 82 ± 3 mg/dL
- Plasma Triglycerides ([1]; 10 mg/kg, Day 7): 139 ± 10 mg/dL
- Plasma Cholesterol ([1]; 10 mg/kg, Day 14): 87 ± 3 mg/dL
- Plasma Triglycerides ([1]; 10 mg/kg, Day 14): 165 ± 15 mg/dL
- Plasma Cholesterol ([1]; 10 mg/kg, Prebleed): 96 ± 3 mg/dL
- Plasma Triglycerides ([1]; 10 mg/kg, Prebleed): 183 ± 18 mg/dL
- Plasma Cholesterol ([1]; 30 mg/kg, Day 7): 78 ± 3 mg/dL
- Plasma Triglycerides ([1]; 30 mg/kg, Day 7): 116 ± 9 mg/dL
- Plasma Cholesterol ([1]; 30 mg/kg, Day 14): 78 ± 2 mg/dL
- Plasma Triglycerides ([1]; 30 mg/kg, Day 14): 118 ± 14 mg/dL
- Plasma Cholesterol ([1]; 30 mg/kg, Prebleed): 99 ± 3 mg/dL
- Plasma Triglycerides ([1]; 30 mg/kg, Prebleed): 166 ± 13 mg/dL
- plasma glucose levels [2, 3]: no concomitant reduction in plasma glucose levels
- plasma leptin levels [2, 3]: reduced by all compound I-181 doses evaluated
- total body weight relative to vehicle-treated control animals ([2]; high-fat diet rats, 3, 10, 30 mg/kg once daily oral gavage, FIG. 11): dose-dependent reduction in total body weight
- plasma insulin levels ([2]; high-fat diet rats, 3, 10, 30 mg/kg once daily oral gavage, FIG. 12): reduced to near lean control levels by all three compound I-181 doses
- hepatic triglycerides ([2]; high-fat diet rats, 3, 10, 30 mg/kg once daily oral gavage, FIG. 13): reduced in a dose-dependent manner
- hepatic triglycerides at the highest dose ([2]; high-fat diet rats, highest dose evaluated (30 mg/kg)): normalized to lean control levels by the highest dose evaluated
